Source: a melting point compilation (Tetko et al.; mined from patent text by program, amines drawn as free bases though some values may be those of a salt)

Compound | melting point
CN1CCC(OC(=O)C(C)(c2ccc(O)cc2)C2CCCC2)CC1 (stereo not given) | 128 to 130 °C
CSC(=S)N1CC(C)(C)CSC1=Nc1ccccc1C(C)C | 77 to 79 °C
O=C1NC(=O)c2c1c(-c1c(O)cccc1Cl)cc1[nH]c3ccc(O)cc3c21 | 228 to 235 °C
CCOC(=O)CNCC1CC2c3cccc4[nH]cc(c34)CC2N(C)C1 (stereo not given) | 174 to 176 °C
ClCCNc1ccnc2cc(Cl)ccc12 | 239 to 240 °C
O=C(CSc1ccccc1)NNC(=O)N1Cc2ccccc2Oc2ccc(Cl)cc21 | 172 to 175 °C
COc1nc(Cl)cnc1N(C(=O)OCC(C)C)S(=O)(=O)c1ccccc1-c1ccc(OC2CCCCO2)cc1 (stereo not given) | 142 to 143 °C
CCC(C)C(NC(=O)OC)C(=O)NN(Cc1ccc(-c2cncs2)cc1)CC(O)C(Cc1ccccc1)NC(=O)C(NC(=O)OC)C(C)(C)C (stereo not given) | 139 to 141 °C
CCCOc1ccccc1C1=NC(=O)C2=CN=NC2=N1 | 170 to 171 °C
CC(=NOCCOc1ccc(CC2SC(=O)NC2=O)cc1)c1ccc2ccccc2n1 (stereo not given) | 162 to 163 °C
CCCC1=C(C#N)C(c2ccccc2C#N)c2c[nH]nc2N1 (stereo not given) | 218 °C
Nc1cc(NC(=O)CCCCl)c(Cl)cc1Cl | 125 to 128 °C
CC(=O)N1CCSc2ccccc2C1 | 69 to 70 °C
NC(=S)N(O)[C@H]1C[C@@H](c2ccc(F)cc2)C1 | 156 to 158 °C
CC(C)CO/N=C(\C(=O)O)c1csc(NC(c2ccccc2)(c2ccccc2)c2ccccc2)n1 | 168 to 169 °C
Cc1sc2c(Br)c3ccccc3c(C3=CC(Br)([N+](=O)[O-])C(OC(Cc4ccccc4)C(=O)O)C=C3)c2c1C (stereo not given) | 243 to 245 °C
OCCNCC(O)c1cccc(OCc2ccccc2)c1 (stereo not given) | 114 °C
Nc1ccc(Nc2cccc(O)c2)cc1 | 146 to 149 °C
O=C1Nc2ccncc2C(=O)C1c1c(F)cccc1Cl (stereo not given) | 249 °C
Cc1c(CC2CCc3c(c4ccccc4n3C)C2=O)ncn1C(c1ccccc1)(c1ccccc1)c1ccccc1 (stereo not given) | 193 to 195 °C
S=C(Nc1ccccc1Cl)N1CCN(c2cnccn2)CC1 | 167 to 169 °C
O=C(C(=C1NCCCS1)[N+](=O)[O-])c1ccccc1 | 137 to 140 °C
CS(=O)c1n[nH]c2ccccc2c1=O (stereo not given) | 266 to 269 °C
CC(=O)NC[C@H]1CN(c2ccc3c(c2)CC(C)N3C(=O)OCc2ccccc2)C(=O)O1 (stereo not given in full) | 170 to 175 °C
C=CCOc1ccc(-c2cc(N)n[nH]2)cc1 | 158 to 159 °C
CCC(=O)CC(=O)OCCC#N | 98 to 100 °C

Next, values leading:

melting point | Compound
90 to 91.5 °C | CCc1ccc(Cc2cc(Br)cc(Br)c2O)cc1
141 to 143 °C | CCNC(=O)c1nc(-c2ccc(C)c(C)c2)n(-c2cc(Cl)ccc2C)c1-c1cccc(Cl)c1
156 to 157 °C | CC(C)(C)CN1C(=O)C(=O)N(c2ccc(F)cc2F)C1=S
188 to 190 °C | COc1ccccc1N1CCN(CCn2cnc3sc(C(=O)N(C)C)c(C)c3c2=O)CC1
166 to 169 °C | Cc1cccc(C(=O)NN=Cc2cccc(Cl)c2O)c1
188 to 190 °C | COc1cc(C=C2OC(C)=CC2=O)cc(OC)c1O
189 to 191 °C | C=CCOc1nc2cc(OC)c(OC)cc2c2ncnn12
208 to 211 °C | CSc1nc(C)c(Cc2cccnc2)c(=O)[nH]1
196 to 198 °C | CCCS(=O)(=O)c1nc2cc(-n3nc(C)n(C)c3=O)c(F)cc2s1
136 to 137 °C | COCC(C)Oc1cc(Oc2ccc(S(C)(=O)=O)cc2)cc2cc(C(=O)O)[nH]c12 (stereo not given)
175 to 179 °C | Cc1noc(C)c1-c1ccc(OC2SCC(O)C(O)C2O)cc1 (stereo not given)
89 to 90 °C | COc1ccccc1[Si](C)(C)COc1cc(C(C)(C)C)c(O)c(C(C)(C)C)c1
190 to 192 °C | COC(=O)C1=C(C)Nc2ccccc2NC1c1ccccc1C(F)(F)F (stereo not given)
144 to 148 °C | COC(=O)C1=C(C)NC(C)=C(C(=O)OCOC(C)=O)C1c1cccc(Cl)c1Cl (stereo not given)
